A short description of series [1]: Phase solubility of sertraline with cyclodextrins. It counts as physicochemical. The following applies: about 25° C., pH not adjusted, higher cyclodextrin concentration (above about 0.08 M). The procedure: At lower molar concentrations of cyclodextrin (less than about 0.08 M), the phase solubility curve for each cyclodextrin is very similar.
The phase solubility curves for sertraline with SAE-CD, HP-β-CD and γ-CD were determined according to procedures well known in the art (Higuchi et al. in Phase Solubility Techniques, in Advances in Analytical Chemistry and Instrumentation (Ed. C. N. Reilly, John Wiley & Sons Inc., Vol. 4 (1965), pg. 117-212) the relevant disclosure of which is hereby incorporated by reference). The results are depicted in FIG. 1.

Series [2] is described as follows: Solubility of sertraline HCl versus pH in SBE-β-CD solutions. The note with it: 0, 10% or 20% sulfobutylether-β-cyclodextrin (DS=6.7), buffers pH 1, 3, 5, 7. The class given is physicochemical.
Description: Aqueous 0.01M buffers were prepared at pH values of 1 (HCl), 3 and 5 (citric acid/sodium citrate), and 7 (monobasic potassium phosphate) and used to prepare solutions containing 0, 10% or 20% sulfobutylether-β-cyclodextrin (DS=6.7). Excess sertraline HCl was added to each of the solutions and allowed to mix for three days. The solutions were centrifuged and the supernatants analyzed for sertraline content and final pH.

Three compounds from US20050250738A1, “Taste-masked formulations containing sertraline and sulfoalkyl ether cyclodextrin” (priority 2004, published 2005) can be followed below.

As to “Sulfobutyl Ether-β-Cyclodextrin [SBE7-β-CD]”, the “Phase solubility of sertraline with cyclodextrin” value in series [1] is “outperform the γ-CD”.

On to “2-hydroxypropyl-β-cyclodextrin [HP-β-CD]”, for which the “Phase solubility of sertraline with cyclodextrin” value in series [1] is reported as “outperform the γ-CD”.

For the compound `CN[C@H]1CC[C@@H](c2ccc(Cl)c(Cl)c2)c2ccccc21` [sertraline, (1S-cis)-4-(3,4-dichlorophenyl)-1,2,3,4-tetrahydro-N-methyl-1-naphthalenamine], in series [2], the “Effect of solution pH upon solubility” value is recorded as “independent of the pH over the range evaluated”.
